# Data: patent publication US10246426B2, “Triazole compounds as T-type calcium channel blockers” (IDORSIA PHARMACEUTICALS LTD, priority 2014, dated 2019)
# Target: Cav3.2 (Homo sapiens, UniProt O95180)
# Test: Calcium flux FLIPR assay, HEK293 cells recombinantly expressing Cav3.2
# Assay type: cell-based
# Details: Cav3.2-channel, Ca2+ entry stimulated by 10 mM CaCl2
# Protocol: In Vitro Methods—Measurement of Calcium Channel Flux by Means of FLIPR Assays.
# HEK293 cells recombinantly expressing either voltage-dependent T-type calcium channel subunit […] (Cav3.2) or voltage-dependent L-type calcium channel subunit alpha-1C (Cav1.2) are assayed for calcium flux using the calcium indicator dye Fluo-4-AM (Molecular Devices) and FLIPR technology (Fluorometric Imaging Plate Reader, Molecular Devices) (Xie X, Van Deusen A L, Vitko I, Babu D A, Davies L A, Huynh N, Cheng H, Yang N, Barrett P Q, Perez-Reyes E. Validation of high throughput screening assays against three subtypes of Ca(v)3 T-type channels using molecular and pharmacologic approaches. Assay and Drug Development Technologies 2007, 5(2), 191-203). The HEK293 cells recombinantly expressing Cav3.2 are maintained in DMEM growth medium (Life Technologies) supplemented with 10% Fetal Bovine Serum (FBS), 100 U/ml penicilin (Life Technologies), 100 μg/ml streptomycin (Life Technologies) and 1 mg/ml G418 (Life Technologies). HEK293 cells recombinantly expressing Cav1.2 are maintained in DMEM growth medium (Life technologies) supplemented with 10% FBS, 0.1 mg/ml G418 (Life Technologies), 0.1 mg/ml hygromycin (Life Technologies) and 40 ug/ml zeocin (Life Technologies).
# Cells are washed once with PBS, then dissociated in 0.25% trypsin/EDTA (Life Technologies) and seeded into poly-D-lysine coated 384-well black, clear bottom plates (BD Biosciences) at a density of 30,000 cells/well. The seeded plates are incubated overnight at 37° C.
# Immediately prior to performing the assay, medium is removed and cells are treated for 1 hour at 37° C. with loading buffer containing HBSS 1× (137 mM NaCl; 5.4 mM KCl; 0.25 mM Na2HPO4; 1.3 mM CaCl2; 0.4 mM MgSO04; 0.5 mM MgCl2; 0.4 mM KH2PO4, pH 7.4), 0.375 g/L NaHCO3, 20 mM Hepes, supplemented with 3 μM Fluo-4-AM and 0.15% Pluronic (Life Technologies). The cells are then washed three times with assay buffer (HBSS 1×; 0.375 g/L NaHCO3; 20 mM Hepes; 1% FBS; pH 7.4) and allowed to rest in 50 μl of wash buffer for 30 minutes.
# Stock solutions of test compounds are prepared to a concentration of 10 mM in DMSO. For the Cav3.2 assay, serial dilutions of the compounds are prepared in TEAC buffer (100 mM tetraethylammonium chloride; 20 mM Hepes; 2.5 mM CaCl2; 5 mM KCl; 1 mM MgCl2; 1% FBS; pH 7.2), for the Cav1.2 assay serial dilutions are prepared in assay buffer. […] The compounds are incubated with the cells for 3 minutes and Ca2+ entry is stimulated by adding either CaCl2 to a final concentration of 10 mM (Cav3.2 assay) or by adding KCl to a final concentration of 20 mM (Cav1.2 assay). The kinetics of fluorescence increase are recorded for every well and the area under the fluorescence trace for every compound concentration is used to generate inhibition curves using non-linear regression sigmoidal concentration-response curve analysis with in-house software. IC50 values are calculated and represent the compound concentration required to inhibit 50% of the signal that is obtained in the presence of vehicle instead of test compound.
# Cav3.2, sequence (O95180 whole entry, looked up): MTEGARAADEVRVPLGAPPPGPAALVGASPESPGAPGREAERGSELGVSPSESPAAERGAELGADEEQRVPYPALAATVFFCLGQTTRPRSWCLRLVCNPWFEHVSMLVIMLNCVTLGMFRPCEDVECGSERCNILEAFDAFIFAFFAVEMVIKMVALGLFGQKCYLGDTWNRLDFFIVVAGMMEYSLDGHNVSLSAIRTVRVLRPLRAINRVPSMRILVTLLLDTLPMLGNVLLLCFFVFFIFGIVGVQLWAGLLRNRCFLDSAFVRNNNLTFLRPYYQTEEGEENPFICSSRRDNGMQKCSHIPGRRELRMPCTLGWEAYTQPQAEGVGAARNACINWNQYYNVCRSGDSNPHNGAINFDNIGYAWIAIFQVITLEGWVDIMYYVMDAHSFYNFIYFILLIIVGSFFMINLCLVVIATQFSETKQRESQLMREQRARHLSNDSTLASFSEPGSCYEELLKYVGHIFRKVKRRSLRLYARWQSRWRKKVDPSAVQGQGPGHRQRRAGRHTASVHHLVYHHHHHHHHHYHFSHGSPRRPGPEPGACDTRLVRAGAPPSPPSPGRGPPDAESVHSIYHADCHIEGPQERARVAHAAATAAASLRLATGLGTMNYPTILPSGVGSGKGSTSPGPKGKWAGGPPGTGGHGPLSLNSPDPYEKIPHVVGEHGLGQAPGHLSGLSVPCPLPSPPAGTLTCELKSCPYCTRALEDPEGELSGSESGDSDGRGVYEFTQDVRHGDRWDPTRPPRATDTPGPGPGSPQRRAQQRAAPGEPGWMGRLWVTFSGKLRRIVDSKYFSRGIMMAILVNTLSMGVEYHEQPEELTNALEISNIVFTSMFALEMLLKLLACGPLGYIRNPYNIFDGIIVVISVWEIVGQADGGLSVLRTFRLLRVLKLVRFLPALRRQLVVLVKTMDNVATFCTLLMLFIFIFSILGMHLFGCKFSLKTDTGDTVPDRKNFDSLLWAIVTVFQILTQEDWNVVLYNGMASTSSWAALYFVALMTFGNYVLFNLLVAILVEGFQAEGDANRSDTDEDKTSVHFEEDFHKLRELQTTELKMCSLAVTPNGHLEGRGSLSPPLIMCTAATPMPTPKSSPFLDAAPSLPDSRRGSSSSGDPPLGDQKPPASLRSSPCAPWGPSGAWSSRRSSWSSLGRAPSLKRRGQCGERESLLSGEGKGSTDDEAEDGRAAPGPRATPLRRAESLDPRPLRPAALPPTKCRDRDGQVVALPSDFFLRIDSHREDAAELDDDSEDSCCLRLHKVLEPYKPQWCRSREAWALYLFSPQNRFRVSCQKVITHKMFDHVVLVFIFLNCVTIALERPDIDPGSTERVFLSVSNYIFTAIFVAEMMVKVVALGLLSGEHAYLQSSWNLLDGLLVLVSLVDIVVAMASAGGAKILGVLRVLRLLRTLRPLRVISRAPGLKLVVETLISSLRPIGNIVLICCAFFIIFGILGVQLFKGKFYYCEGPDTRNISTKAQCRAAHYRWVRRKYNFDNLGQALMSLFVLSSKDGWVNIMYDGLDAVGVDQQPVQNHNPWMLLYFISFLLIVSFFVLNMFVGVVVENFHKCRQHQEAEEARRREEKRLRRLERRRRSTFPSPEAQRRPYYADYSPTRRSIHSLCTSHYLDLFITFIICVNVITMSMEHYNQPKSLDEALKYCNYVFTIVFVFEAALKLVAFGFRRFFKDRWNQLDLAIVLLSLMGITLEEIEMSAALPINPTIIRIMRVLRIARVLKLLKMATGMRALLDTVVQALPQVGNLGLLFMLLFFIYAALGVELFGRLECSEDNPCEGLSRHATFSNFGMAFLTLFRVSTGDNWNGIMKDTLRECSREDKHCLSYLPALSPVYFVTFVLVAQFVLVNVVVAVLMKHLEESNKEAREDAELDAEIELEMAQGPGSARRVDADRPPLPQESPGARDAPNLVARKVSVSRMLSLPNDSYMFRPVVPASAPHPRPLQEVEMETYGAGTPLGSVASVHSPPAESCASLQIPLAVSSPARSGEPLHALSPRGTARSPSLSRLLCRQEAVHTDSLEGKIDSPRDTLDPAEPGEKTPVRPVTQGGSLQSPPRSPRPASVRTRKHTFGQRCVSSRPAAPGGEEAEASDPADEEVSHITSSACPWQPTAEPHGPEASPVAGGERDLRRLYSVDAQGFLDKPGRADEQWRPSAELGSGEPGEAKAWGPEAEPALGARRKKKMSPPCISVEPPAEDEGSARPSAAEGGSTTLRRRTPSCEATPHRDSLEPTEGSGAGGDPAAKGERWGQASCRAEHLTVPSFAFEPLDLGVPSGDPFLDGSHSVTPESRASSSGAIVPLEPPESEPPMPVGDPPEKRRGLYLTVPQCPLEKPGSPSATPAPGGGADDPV
row,SMILES,IC50 [nM]
1,"COc1cc(Cn2ncc(NC(=O)Cc3ccc(C4(C(F)(F)F)CC4)cc3)n2)cc(F)c1F [Example 227, N-[2-(3,4-Difluoro-5-methoxy-benzyl)-2H-[1,2,3]triazol-4-yl]-2-[4-(1-trifluoromethyl-cyclopropyl)-phenyl]-acetamide]",770
2,"N#Cc1ccc(Cn2ncc(NC(=O)Cc3cnc(N4CCCC4)c(F)c3)n2)cc1F [Example 161, N-[2-(4-Cyano-3-fluoro-benzyl)-2H-[1,2,3]triazol-4-yl]-2-(5-fluoro-6-pyrrolidin-1-yl-pyridin-3-yl)-acetamide]",25
3,"CCCCc1n[nH]c2ccc(CC(=O)Nc3cnn(Cc4ccc(F)c(F)c4)n3)cc12 [Example 32, 2-(3-Butyl-1H-indazol-5-yl)-N-[2-(3,4-difluoro-benzyl)-2H-[1,2,3]triazol-4-yl]-acetamide]",74
4,"COc1cc(Cn2ncc(NC(=O)Cc3ccc(OCC4COC4)cc3)n2)ccc1F [Example 108, N-[2-(4-Fluoro-3-methoxy-benzyl)-2H-[1,2,3]triazol-4-yl]-2-[4-(oxetan-3-ylmethoxy)-phenyl]-acetamide]",300
5,"CCOc1ccc(Cn2ncc(NC(=O)Cc3ccc(C(C)(C)C)cc3)n2)cc1 [Example 43, 2-(4-tert-Butyl-phenyl)-N-[2-(4-ethoxy-benzyl)-2H-[1,2,3]triazol-4-yl]-acetamide]",45
6,"CCn1ncc2cc(CC(=O)Nc3cnn(Cc4ccc(OC(F)(F)F)c(F)c4)n3)ccc21 [Example 190, 2-(1-Ethyl-1H-indazol-5-yl)-N-[2-(3-fluoro-4-trifluoromethoxy-benzyl)-2H-[1,2,3]triazol-4-yl]-acetamide]",14
7,"Cn1ncc2cc(CC(=O)Nc3cnn(Cc4ccc(OC(F)(F)F)c(F)c4)n3)ccc21 [Example 186, N-[2-(3-Fluoro-4-trifluoromethoxy-benzyl)-2H-[1,2,3]triazol-4-yl]-2-(1-methyl-1H-indazol-5-yl)-acetamide]",8.8
8,"O=C(Cc1ccc(N2CCC(F)(F)C2)nc1)Nc1cnn(Cc2ccc(F)c(F)c2)n1 [Example 17, N-[2-(3,4-Difluoro-benzyl)-2H-[1,2,3]triazol-4-yl]-2-[6-(3,3-difluoro-pyrrolidin-1-yl)-pyridin-3-yl]-acetamide]",7.3
9,"Cc1ccc(Cn2ncc(NC(=O)Cc3ccc(OCC4(F)COC4)cc3)n2)cc1C#N [Example 200, N-[2-(3-Cyano-4-methyl-benzyl)-2H-[1,2,3]triazol-4-yl]-2-[4-(3-fluoro-oxetan-3-ylmethoxy)-phenyl]-acetamide]",410
10,"COc1cc(Cn2ncc(NC(=O)Cc3ccc(OCC4CC(F)(F)C4)cc3)n2)ccc1F [Example 111, 2-[4-(3,3-Difluoro-cyclobutylmethoxy)-phenyl]-N-[2-(4-fluoro-3-methoxy-benzyl)-2H-[1,2,3]triazol-4-yl]-acetamide]",57
11,"Cc1nn(C)c2ccc(CC(=O)Nc3cnn(Cc4ccc(F)c(F)c4)n3)cc12 [Example 28, N-[2-(3,4-Difluoro-benzyl)-2H-[1,2,3]triazol-4-yl]-2-(1,3-dimethyl-1H-indazol-5-yl)-acetamide]",22
12,"COc1ccc(Cn2ncc(NC(=O)Cc3ccc(C4(F)COC4)cc3)n2)cc1C#N [Example 214, N-[2-(3-Cyano-4-methoxy-benzyl)-2H-[1,2,3]triazol-4-yl]-2-[4-(3-fluoro-oxetan-3-yl)-phenyl]-acetamide]",250
13,"Cc1cc(Cn2ncc(NC(=O)Cc3ccc(C4(F)COC4)cc3)n2)ccc1C#N [Example 235, N-[2-(4-Cyano-3-methyl-benzyl)-2H-[1,2,3]triazol-4-yl]-2-[4-(3-fluoro-oxetan-3-yl)-phenyl]-acetamide]",92
14,"CCN(CC)c1ccc(CC(=O)Nc2cnn(Cc3ccc(F)cc3)n2)cn1 [Example 95, 2-(6-Diethylamino-pyridin-3-yl)-N-[2-(4-fluoro-benzyl)-2H-[1,2,3]triazol-4-yl]-acetamide]",46
15,"COc1ccc(Cn2ncc(NC(=O)Cc3ccc(N4CCCC4)nc3)n2)cc1F [Example 156, N-[2-(3-Fluoro-4-methoxy-benzyl)-2H-[1,2,3]triazol-4-yl]-2-(6-pyrrolidin-1-yl-pyridin-3-yl)-acetamide]",70
16,"O=C(Cc1ccc(C2(C(F)(F)F)CC2)cc1)Nc1cnn(Cc2ccc(OC(F)F)c(F)c2)n1 [Example 181, N-[2-(4-Difluoromethoxy-3-fluoro-benzyl)-2H-[1,2,3]triazol-4-yl]-2-[4-(1-trifluoromethyl-cyclopropyl)-phenyl]-acetamide]",86
17,"Cn1ncc2cc(CC(=O)Nc3cnn(Cc4ccc(F)cc4)n3)ccc21 [Example 56, N-[2-(4-Fluoro-benzyl)-2H-[1,2,3]triazol-4-yl]-2-(1-methyl-1H-indazol-5-yl)-acetamide]",38
18,"CCn1ncc2cc(CC(=O)Nc3cnn(Cc4ccc(F)c(OC)c4)n3)ccc21 [Example 117, 2-(1-Ethyl-1H-indazol-5-yl)-N-[2-(4-fluoro-3-methoxy-benzyl)-2H-[1,2,3]triazol-4-yl]-acetamide]",80
19,"N#Cc1ccc(Cn2ncc(NC(=O)Cc3ccc(N4CCCC4)nc3)n2)cc1F [Example 75, N-[2-(4-Cyano-3-fluoro-benzyl)-2H-[1,2,3]triazol-4-yl]-2-(6-pyrrolidin-1-yl-pyridin-3-yl)-acetamide]",87
20,"COc1cc(Cn2ncc(NC(=O)Cc3ccc4c(c3)c(C)nn4C)n2)cc(F)c1F [Example 210, N-[2-(3,4-Difluoro-5-methoxy-benzyl)-2H-[1,2,3]triazol-4-yl]-2-(1,3-dimethyl-1H-indazol-5-yl)-acetamide]",260
21,"COc1cc(Cn2ncc(NC(=O)Cc3ccc(C4(OC)COC4)cc3)n2)cc(F)c1F [Example 228, N-[2-(3,4-Difluoro-5-methoxy-benzyl)-2H-[1,2,3]triazol-4-yl]-2-[4-(3-methoxy-oxetan-3-yl)-phenyl]-acetamide]",300
22,CN(c1ccc(CC(=O)Nc2cnn(Cc3ccc(F)c(F)c3)n2)cn1)C1CC1 [Example 11],32
23,"CC(C)(C)c1ccc(CC(=O)Nc2cnn(Cc3ccc(C#N)cn3)n2)cc1 [Example 244, 2-(4-tert-Butyl-phenyl)-N-[2-(5-cyano-pyridin-2-ylmethyl)-2H-[1,2,3]triazol-4-yl]-acetamide]",34
24,"Cc1cc(Cn2ncc(NC(=O)Cc3ccc(OC4CC(F)(F)C4)cc3)n2)ccc1C#N [Example 166, N-[2-(4-Cyano-3-methyl-benzyl)-2H-[1,2,3]triazol-4-yl]-2-[4-(3,3-difluoro-cyclobutoxy)-phenyl]-acetamide]",33
25,"O=C(Cc1ccc2[nH]nc(C(F)(F)F)c2c1)Nc1cnn(Cc2ccc(F)c(F)c2)n1 [Example 39, N-[2-(3,4-Difluoro-benzyl)-2H-[1,2,3]triazol-4-yl]-2-(3-trifluoromethyl-1H-indazol-5-yl)-acetamide]",280
26,"COc1ccc(Cn2ncc(NC(=O)Cc3ccc(N4CCCC4)nc3)n2)cc1 [Example 62, N-[2-(4-Methoxy-benzyl)-2H-[1,2,3]triazol-4-yl]-2-(6-pyrrolidin-1-yl-pyridin-3-yl)-acetamide]",120
27,"CC1(c2ccc(CC(=O)Nc3cnn(Cc4ccc(F)cc4)n3)cc2)COC1 [Example 53, N-[2-(4-Fluoro-benzyl)-2H-[1,2,3]triazol-4-yl]-2-[4-(3-methyl-oxetan-3-yl)-phenyl]-acetamide]",35
28,"Cc1cc(Cn2ncc(NC(=O)Cc3ccc(C(C)(C)C)cc3)n2)ccc1C#N [Example 162, 2-(4-tert-Butyl-phenyl)-N-[2-(4-cyano-3-methyl-benzyl)-2H-[1,2,3]triazol-4-yl]-acetamide]",36
29,"COc1ccc(Cn2ncc(NC(=O)Cc3ccc(C(C)(C)C)cc3)n2)cc1C#N [Example 202, 2-(4-tert-Butyl-phenyl)-N-[2-(3-cyano-4-methoxy-benzyl)-2H-[1,2,3]triazol-4-yl]-acetamide]",320
